Results on ten compounds are retold here after US9969775B2, “CGRP antagonist peptides” (Ferring B.V., priority 2015, dated 2018).

As a reminder, the IC50 is the concentration that gives 50% inhibition.

Experiment [1] addresses T1, hAM2 receptor (CALCRL:RAMP3) (Homo sapiens, UniProt O60896+Q16602).
T1 construct: expressed in transfected cells; host or cells: GeneBLAzer CALCRL:RAMP3-CRE-bla Freestyle 293F
In words: AM2 receptor antagonist activity measured by cAMP assay (HTRF). The format is cell-based. The following applies: for Emax: % MPE: percent of the maximal possible effect, read-out: hAM2-R Efficacy Antag (%) Ave; for Emax / IC50: agonist human adrenomedullin; for IC50: GeneBLAzer CALCRL:RAMP3-CRE-bla Freestyle 293F cells, read-out: hAM2-R IC50 Ave; for selectivity ratio CGRP/AM2: selectivity ratio for hCGRP over hAM2, calculated from the IC50 values.
Description: Antagonist activity for the adrenomedullin receptor AM2 was determined using the method described in Example 6 above, with the following modifications. Instead of GeneBLAzer® CALCRL:RAMP1-CRE-bla Freestyle™ 293F cells, GeneBLAzer® CALCRL:RAMP3-CRE-bla Freestyle™ 293F cells were used to test activity at hAM2 receptors. The agonist was human adrenomedullin, instead of α-CGRP.
In Table 5, the selectivity ratio for hCGRP over hAM2 is calculated as hCGRP-R IC50/hAM2-R IC50.

For experiment [2], the target named is T2, hCGRP receptor (CALCRL:RAMP1) (Homo sapiens, UniProt O60894+Q16602).
T2 construct: host or cells: GeneBLAzer CALCRL:RAMP1-CRE-bla Freestyle 293F
T2 sequence (Q16602 23-461): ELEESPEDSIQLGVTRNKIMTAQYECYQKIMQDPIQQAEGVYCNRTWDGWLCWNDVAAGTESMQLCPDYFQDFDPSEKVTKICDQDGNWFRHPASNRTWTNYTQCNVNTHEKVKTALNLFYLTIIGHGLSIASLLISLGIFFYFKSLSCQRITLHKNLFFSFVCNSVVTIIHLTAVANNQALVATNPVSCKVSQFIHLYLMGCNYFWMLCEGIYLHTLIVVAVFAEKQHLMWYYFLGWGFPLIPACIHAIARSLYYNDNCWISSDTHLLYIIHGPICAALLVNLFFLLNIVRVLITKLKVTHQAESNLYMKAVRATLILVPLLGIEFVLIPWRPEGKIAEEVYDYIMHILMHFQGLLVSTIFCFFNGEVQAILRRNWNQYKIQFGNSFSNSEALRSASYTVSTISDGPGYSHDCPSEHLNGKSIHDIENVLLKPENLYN
T2 sequence (O60894 27-148): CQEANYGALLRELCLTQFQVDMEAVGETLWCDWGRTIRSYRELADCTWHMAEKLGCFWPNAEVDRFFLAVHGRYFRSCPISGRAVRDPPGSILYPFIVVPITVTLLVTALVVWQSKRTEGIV
Description: CGRP receptor antagonist activity measured by cAMP assay (HTRF). The format is cell-based. The conditions noted are these: agonist human α-CGRP; for Emax: % MPE: percent of the maximal possible effect, read-out: hCGRP-R Efficacy Antag (%) Ave; for IC50: GeneBLAzer CALCRL:RAMP1-CRE-bla Freestyle 293F cells, 30 minutes, read-out: hCGRP-R IC50 Ave. The protocol: Example 6: CGRP Receptor Antagonist Activity Measured by cAMP Assay
CGRP receptor agonists increase intracellular cyclic adenosine mono-phosphate (cAMP). CGRP receptor antagonists can reduce the agonist effect. Antagonist activity was assessed by measurement of cyclic adenosine mono-phosphate (cAMP) using cell line stably expressing the hCGRP receptor (GeneBLAzer® CALCRL:RAMP1-CRE-bla Freestyle™ 293F, Invitrogen). hCGRP receptor expressing cells were maintained in DMEM high-glucose with GlutaMAX™ containing 10% (v/v) FBS, 0.1 mM NEAA, 25 mM HEPES, 5 ug/ml Blasticidin, 100 ug/ml Hygromycin, and 400 ug/ml Geneticin at 37° C. under 5% CO2 in a humidified atmosphere. For cAMP measurement, cells were washed once with 5 ml 1×PBS, cell maintenance media was replaced with compound buffer ((CB): DMEM containing 0.1% BSA and 0.5 mM IBMX), and flasks were incubated for 1 hour at 37° C. under 5% CO2 in a humidified atmosphere. Cells were removed from culture flasks using non-enzymatic cell dissociation buffer and harvested in CB. The reaction was performed in 384 well white small volume plates (Greiner) at a density of 10,000 cells/well. Cells were exposed to varying concentrations of antagonist compounds for 30 minutes in the presence of a fixed concentration of agonist (human α-CGRP). cAMP levels were measured using an HTRF (homogeneous time resolved fluorescence)-based competitive cAMP immunoassay (cAMP Dynamic 2 Kit, Cisbio), according to the manufacturer's instructions. […] Reported parameters include antagonist potency IC50 (the concentration causing half-maximal inhibition of the agonist response for antagonist compounds) and efficacy (% MPE: percent of the maximal possible effect).

Numbered stars: 1 amine (or outer) side, 2 acyl side, 3 side chain; on linkers, the order of the positions; unused ones are H or OH. Bridge positions count the residues as written; N and C are the ends. Square brackets hold non-standard residues; d marks the D form. Peptide text beside a SMILES is read from it. * marks the point of attachment. Phe(3-CH2NH2) = O=C([C@H](Cc1cccc(CN[*:3])c1)N[*:1])[*:2]; Phe(3-CONH2) = NC(=O)c1cccc(C[C@H](N)C(=O)O)c1; Phe(4-CH2NH2) = NCc1ccc(C[C@H](N)C(=O)O)cc1; X15 = N#CN=C(N)NCCC[C@H](N[*:1])C(=O)[*:2]; X13 = N#CN=C(N)NCC[C@H](N[*:1])C(=O)[*:2]; X5 = O=C([C@H](Cc1ccc(CO)cc1)N[*:1])[*:2]; Phe(3-CN) = N#Cc1cccc(C[C@H](N)C(=O)O)c1; X14 = CCN(CC)CCC[C@H](N[*:1])C(=O)[*:2]; Benzoyl(4-F) = O=C(c1ccc(F)cc1)*; Oxazole2carbonyl = O=C(c1ncco1)*; 3Pal = N[C@@H](Cc1cccnc1)C(=O)O; Picolinoyl = O=C(c1ccccn1)*; ΔPro = O=C(O)[C@@H]1C=CCN1; Orn = NCCC[C@H](N)C(=O)O; X7 = O=C(c1cc(F)ccn1)*; X1 = O=C(c1ncccc1F)*

T1 sequence (Q16602 23-461): as the sequence (Q16602 23-461) above
T1 sequence (O60896 24-148): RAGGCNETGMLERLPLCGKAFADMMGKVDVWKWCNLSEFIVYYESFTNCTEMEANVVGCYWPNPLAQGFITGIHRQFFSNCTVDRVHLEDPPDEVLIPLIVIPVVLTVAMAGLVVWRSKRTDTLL

Regarding `CC(C)[C@@H]1NC(=O)[C@H](CC(=O)O)NC(=O)[C@H](CCCNC(=N)N)NC(=O)[C@@H](NC(=O)[C@H](Cc2ccc(O)cc2)NC(=O)[C@H](NC(=O)c2ncccc2F)C(C)C)CSSC[C@@H](C(=O)N[C@@H](Cc2cccnc2)C(N)=O)NC(=O)[C@H](Cc2ccccc2)NC(=O)[C@@H]2CCCN2C(=O)CNC1=O` [Compound 17] (X1-[dV]YCRDVGPFC[3Pal]-NH2; disulfide 3-10), in experiment [1], the Emax is 100%, the IC50 is 7.1 nM and the “selectivity ratio CGRP/AM2” value is 148. Moreover, in experiment [2], the Emax is 100% and the 50% inhibitory concentration (IC50) is 0.05 nM.

With `CC(C)[C@@H]1NC(=O)[C@H](CC(=O)O)NC(=O)[C@H](CCCNC(=N)N)NC(=O)[C@@H](NC(=O)[C@H](Cc2ccc(O)cc2)NC(=O)[C@H](NC(=O)c2cc(F)ccn2)C(C)C)CSSC[C@@H](C(=O)N[C@@H](Cc2cccnc2)C(N)=O)NC(=O)[C@H](Cc2ccccc2)NC(=O)[C@@H]2CCCN2C(=O)CNC1=O` [Compound 18] (X7-[dV]YCRDVGPFC[3Pal]-NH2; disulfide 3-10), in experiment [1], the Emax is 98%, the IC50 was 8.1 nM and the “selectivity ratio CGRP/AM2” value was 52. For the same compound, in experiment [2], the Emax is 100% and the IC50 was 0.16 nM.

Take `CC(C)[C@@H]1NC(=O)[C@H](CC(=O)O)NC(=O)[C@H](CCNC(N)=NC#N)NC(=O)[C@@H](NC(=O)[C@H](Cc2ccc(O)cc2)NC(=O)[C@H](NC(=O)c2ccc(F)cc2)C(C)C)CSSC[C@@H](C(=O)N[C@@H](Cc2cccnc2)C(N)=O)NC(=O)[C@H](Cc2ccccc2)NC(=O)[C@@H]2CCCN2C(=O)CNC1=O` [Compound 19, Bz(4-F)-D-Val-Tyr-c(Cys-norArg(CN)-Asp-Val-Gly-Pro-Phe-Cys)-3Pal-NH2] ({Benzoyl(4-F)}-[dV]YC[X13]DVGPFC[3Pal]-NH2; disulfide 3-10): the Emax in experiment [1] and in experiment [2] was 100% throughout.

For the compound `CC(C)[C@@H]1NC(=O)[C@H](CC(=O)O)NC(=O)[C@H](CCCNC(=N)N)NC(=O)[C@@H](NC(=O)[C@H](Cc2ccc(O)cc2)NC(=O)[C@H](NC(=O)c2ccc(F)cc2)C(C)C)CSSC[C@@H](C(=O)N[C@@H](Cc2cccnc2)C(N)=O)NC(=O)[C@H](Cc2ccc(CN)cc2)NC(=O)[C@@H]2CCCN2C(=O)CNC1=O` [Compound 20, Bz(4-F)-D-Val-Tyr-c(Cys-Arg-Asp-Val-Gly-Pro-Phe(4-CH2NH2)-Cys)-3Pal-NH2] ({Benzoyl(4-F)}-[dV]YCRDVGP[Phe(4-CH2NH2)]C[3Pal]-NH2; disulfide 3-10), in experiment [1], the Emax is 100%, the IC50 is 54 nM and the “selectivity ratio CGRP/AM2” value is listed as 309. In experiment [2], the Emax was 100% and the IC50 is 0.18 nM.

On to `CC(C)[C@@H]1NC(=O)[C@H](CC(=O)O)NC(=O)[C@H](CCCNC(=N)N)NC(=O)[C@@H](NC(=O)[C@H](Cc2ccc(O)cc2)NC(=O)[C@H](NC(=O)c2ccc(F)cc2)C(C)C)CSSC[C@@H](C(=O)N[C@@H](Cc2cccnc2)C(N)=O)NC(=O)[C@H](Cc2cccc(C#N)c2)NC(=O)[C@@H]2CCCN2C(=O)CNC1=O` [Compound 21, Bz(4-F)-D-Val-Tyr-c(Cys-Arg-Asp-Val-Gly-Pro-Phe(3-CN)-Cys)-3Pal-NH2] ({Benzoyl(4-F)}-[dV]YCRDVGP[Phe(3-CN)]C[3Pal]-NH2; disulfide 3-10), for which, in experiment [1], the Emax is 99%, the IC50 is 33 nM and the “selectivity ratio CGRP/AM2” value is on record as 258. In experiment [2], the Emax is 100% and the IC50 was 0.13 nM.

For the compound `CC(C)[C@@H]1NC(=O)[C@H](CC(=O)O)NC(=O)[C@H](CCCNC(=N)N)NC(=O)[C@@H](NC(=O)[C@H](Cc2cccc(CN)c2)NC(=O)[C@H](NC(=O)c2ccc(F)cc2)C(C)C)CSSC[C@@H](C(=O)N[C@@H](Cc2cccnc2)C(N)=O)NC(=O)[C@H](Cc2ccc(O)cc2)NC(=O)[C@@H]2C=CCN2C(=O)CNC1=O` [Compound 22, Bz(4-F)-D-Val-Phe(3-CH2NH2)-c(Cys-Arg-Asp-Val-Gly-Dhp-Tyr-Cys)-3Pal-NH2] ({Benzoyl(4-F)}-[dV][Phe(3-CH2NH2)]CRDVG[ΔPro]YC[3Pal]-NH2; disulfide 3-10), in experiment [1], the Emax was 101%, the IC50 is 33 nM and the “selectivity ratio CGRP/AM2” value is 175. For the same compound, in experiment [2], the Emax is 100% and the IC50 was 0.19 nM.

With `CC(C)[C@@H]1NC(=O)[C@H](CC(=O)O)NC(=O)[C@H](CCCNC(=N)N)NC(=O)[C@@H](NC(=O)[C@H](Cc2cccc(CN)c2)NC(=O)[C@H](NC(=O)c2ncco2)C(C)C)CSSC[C@@H](C(=O)N[C@@H](Cc2cccnc2)C(N)=O)NC(=O)[C@H](Cc2cccc(C(N)=O)c2)NC(=O)[C@@H]2C=CCN2C(=O)CNC1=O` [Compound 23, Oxazole-2-carbonyl-D-Val-Phe(3-CH2NH2)-c(Cys-Arg-Asp-Val-Gly-Dhp-Phe(3-Cbm)-Cys)-3Pal-NH2] (Oxazole2carbonyl-[dV][Phe(3-CH2NH2)]CRDVG[ΔPro][Phe(3-CONH2)]C[3Pal]-NH2; disulfide 3-10), in experiment [1], the Emax was 100%, the IC50 is 21 nM and the “selectivity ratio CGRP/AM2” value was 400. Also, in experiment [2], the Emax was 100% and the IC50 is 0.05 nM.

On to `CCN(CC)CCC[C@@H]1NC(=O)[C@@H](NC(=O)[C@H](Cc2ccc(O)cc2)NC(=O)[C@H](NC(=O)c2ccccn2)C(C)C)CSSC[C@@H](C(=O)N[C@@H](Cc2cccnc2)C(N)=O)NC(=O)[C@H](Cc2ccccc2)NC(=O)[C@@H]2CCCN2C(=O)CNC(=O)[C@H](C(C)C)NC(=O)[C@H](CC(=O)O)NC1=O` [Compound 24, Picolinoyl-D-Val-Tyr-c(Cys-Orn(Et2)-Asp-Val-Gly-Pro-Phe-Cys)-3Pal-NH2] (Picolinoyl-[dV]YC[X14]DVGPFC[3Pal]-NH2; disulfide 3-10), for which, in experiment [1], the Emax is 98%, the IC50 was 128 nM and the “selectivity ratio CGRP/AM2” value is 1213. Moreover, in experiment [2], the Emax is 100% and the IC50 was 0.11 nM.

As to `CC(C)[C@@H]1NC(=O)[C@H](CC(=O)O)NC(=O)[C@H](CCCN)NC(=O)[C@@H](NC(=O)[C@H](Cc2ccc(O)cc2)NC(=O)[C@H](NC(=O)c2ccccn2)C(C)C)CSSC[C@@H](C(=O)N[C@@H](Cc2cccnc2)C(N)=O)NC(=O)[C@H](Cc2ccc(CO)cc2)NC(=O)[C@@H]2CCCN2C(=O)CNC1=O` [Compound 25, Picolinoyl-D-Val-Tyr-c(Cys-Orn-Asp-Val-Gly-Pro-Phe(4-CH2OH)-Cys)-3Pal-NH2] (Picolinoyl-[dV]YC[Orn]DVGP[X5]C[3Pal]-NH2; disulfide 3-10), in experiment [1], the Emax was 100%, the IC50 is 78 nM and the “selectivity ratio CGRP/AM2” value is 1071. In experiment [2], the Emax is 100% and the half-maximal inhibitory concentration (IC50) is 0.07 nM.

With `CC(C)[C@@H]1NC(=O)[C@H](CC(=O)O)NC(=O)[C@H](CCCNC(N)=NC#N)NC(=O)[C@@H](NC(=O)[C@H](Cc2ccc(O)cc2)NC(=O)[C@H](NC(=O)c2ccccn2)C(C)C)CSSC[C@@H](C(=O)N[C@@H](Cc2cccnc2)C(N)=O)NC(=O)[C@H](Cc2ccccc2)NC(=O)[C@@H]2CCCN2C(=O)CNC1=O` [Compound 26, Picolinoyl-D-Val-Tyr-c(Cys-Arg(CN)-Asp-Val-Gly-Pro-Phe-Cys)-3Pal-NH2] (Picolinoyl-[dV]YC[X15]DVGPFC[3Pal]-NH2; disulfide 3-10), the Emax in experiment [1] and in experiment [2] was 100% in each case.
